In experiment [1] the test system is planktonic or sessile SRB. As to the kind of experiment: SRB growth in the culture medium with MIC promoter. As to conditions: culture medium used in this work; repeated experiments. It is filed as cell-based, Desulfovibrio desulfuricans (ATCC 7757). An excerpt: Second, the BCSR theory points to the existence of “MIC promoters.” Guided by this, we have successfully found a class of chemicals that can greatly accelerate BCSR leading to much more severe MIC pitting. […] This discovery leads to a new aspect of MIC monitoring, and a non-biocidal mitigation method that may even allow us to live with corrosive microbes with much reduced MIC pitting when the promoter's MIC acceleration effect is inhibited.
(§1) The BCSR theory indicates a bottleneck in MIC due to SRB. To resolve the bottleneck, an electron carrier or mediator was added as an MIC “promoter” into 100 ml anaerobic vials containing SRB and carbon steel coupons. This MIC promoter is not corrosive by itself. After a week of SRB growth, coupons were examined using SEM and IFM (Infinite Focus Microscopy). Desulfovibrio desulfuricans ATCC7757 was used to represent SRB in this work. […] Liquid medium was deoxygenated using nitrogen sparging. To study the pits on a carbon steel coupon, the coupon surface was cleaned using an acid solution before SEM and IFM.

Experiment [2] relates to Desulfovibrio desulfuricans ATCC7757 (SRB) on carbon steel coupons. As to the kind of experiment: MIC pitting test: SRB with carbon steel coupons in anaerobic vials, pits examined by SEM and IFM. In kind it is cell-based, Desulfovibrio desulfuricans (ATCC 7757). As to conditions: promoter added to the test medium at a low concentration; C1018 carbon steel coupon, ATCC 1249 medium, 37° C., 7 days; versus no promoter (FIG. 2). On the procedure: Y-axis is pit depth in microns and x-axis pit position in microns.
as §1

On to `Cc1cc2nc3c(=O)[nH]c(=O)nc-3n(C[C@H](O)[C@H](O)[C@H](O)CO)c2cc1C` [riboflavin], for which the “planktonic or sessile SRB growth” value in experiment [1] was “did not promote planktonic or sessile SRB growth”. Moreover, in experiment [2], the MIC pit depth entry is “dramatic MIC pit depth increase”.

The record behind these values is patent US20130008801A1, “METHODS AND COMPOSITIONS FOR APPLICATIONS RELATED TO MICROBIOLOGICALLY INFLUENCED CORROSION” (priority 2010, published 2013).
